The experiment concerns hypoxia-inducible endogenous VEGF expression in HeLa cells. Briefly: Hypoxia-inducible endogenous VEGF expression, VEGF ELISA of conditioned media (dose-response EC50). It counts as cell-based. The note with it: HeLa cells under hypoxic conditions. The procedure: The ability of the compounds of the invention to modulate hypoxia-inducible endogenous VEGF expression may be analyzed as follows. VEGF protein levels may be monitored by an ELISA assay (R&D Systems). Briefly, HeLa cells may be cultured for 24-48 hours under hypoxic conditions (1% O2, 5% CO2, balanced with nitrogen) in the presence or absence of a compound of the invention. The conditioned media may then be assayed by ELISA, and the concentration of VEGF calculated from the standard ELISA curve of each assay.
A dose-response analysis may be performed using the ELISA assay and conditions described above. The conditions for the dose-response ELISA are analogous to those described above. A series of, e.g., seven different concentrations may be analyzed. […] Dose-response curves may be plotted using percentage inhibition versus concentration of the compound, and EC50 and CC50 values may be generated for each compound with the maximal inhibition set as 100% and the minimal inhibition as 0%.
On the technique in general: In an ELISA, binding on a coated surface is turned into a signal by an enzyme label.

Each structure is given as a SMILES string.

The record followed here is patent US8076352B2, “Administration of carboline derivatives useful in the treatment of cancer and other diseases” (PTC Therapeutics, Inc., priority 2004, dated 2011).

By EC50 is commonly meant the concentration that produces a half-maximal response. Read a low EC50 as greater potency.

In turn, `CCCC(=O)N1CCc2c([nH]c3ccc(Cl)cc23)C1c1ccc(OC)c(OC)c1` (stereo not drawn) [Compound 144] came in with an EC50 (Homo sapiens) of 40 to 200 nM.

`CCOC(=O)N1CCc2c([nH]c3ccc(Cl)cc23)C1C1CCCCC1` (stereo not drawn) [Compound 145]: under “Homo sapiens”, the EC50 fell in the range of 40 to 200 nM.

As for `CCNC(=S)N1CCc2c([nH]c3ccc(Cl)cc23)C1c1ccc(OC)cc1` (stereo not drawn) [Compound 146], the EC50 (Homo sapiens) lay in the range of 40 to 200 nM.

Molecule `COc1ccc(C2c3[nH]c4ccc(Cl)cc4c3CCN2C(=O)NC2CCCCC2)cc1` (stereo not drawn) [Compound 147] registered a half-maximal effective concentration (EC50) (Homo sapiens) of 40 to 200 nM.

For the molecule `CCOC(=O)N1CCc2c([nH]c3ccc(Br)cc23)C1c1cccc(Cl)c1Cl` (stereo not drawn) [Compound 148], where the note is “Homo sapiens”, the EC50 was in the range of 40 to 200 nM.

For the setting “Homo sapiens”, `S=C(NC1CCCCC1)N1CCc2c([nH]c3ccc(Br)cc23)C1c1cccc(Cl)c1` (stereo not drawn) [Compound 150] registered an EC50 of 40 to 200 nM.

As to `Clc1cccc(C2NCCc3c2[nH]c2ccc(Br)cc32)c1Cl` (stereo not drawn) [Compound 151], under “Homo sapiens”, the EC50 fell in the range of 40 to 200 nM.

`CC(=O)N1CCc2c([nH]c3ccc(Br)cc23)C1c1ccccc1` (stereo not drawn) [Compound 152] came in with an EC50 (Homo sapiens) of 40 to 200 nM.

`O=[N+](O)c1ccc(C2NCCc3c2[nH]c2ccc(Br)cc32)cc1` (stereo not drawn) [Compound 153] gave an EC50 of 40 to 200 nM.

Where the note is “Homo sapiens”, `COC(=O)N1CCc2c([nH]c3ccc(Cl)cc23)C1c1cc(F)ccc1F` (stereo not drawn) [Compound 154] gave an EC50 of 40 to 200 nM.

Regarding `Fc1cc(F)cc(C2NCCc3c2[nH]c2ccc(Br)cc32)c1` (stereo not drawn) [Compound 155], the EC50 (Homo sapiens) was 40 to 200 nM.

Turning to `Cc1ccc(C2NCCc3c2[nH]c2ccc(Br)cc32)cc1` (stereo not drawn) [Compound 156], the EC50 (Homo sapiens) lay within 40 to 200 nM.

For the molecule `Brc1ccc(C2NCCc3c2[nH]c2ccc(Br)cc32)cc1` (stereo not drawn) [Compound 157], the EC50 (Homo sapiens) lay within 40 to 200 nM.

`CC(C)NC(=S)N1CCc2c([nH]c3ccc(Br)cc23)C1c1ccccc1` (stereo not drawn) [Compound 158]: for the setting “Homo sapiens”, the EC50 was 40 to 200 nM.

For the molecule `FC(F)(F)c1ccc(C2NCCc3c2[nH]c2ccc(Cl)cc32)cc1` (stereo not drawn) [Compound 159], the EC50 (Homo sapiens) fell in the range of 40 to 200 nM.

Under “Homo sapiens”, `COc1ccc(C2c3[nH]c4ccc(Cl)cc4c3CCN2C(=O)Nc2cccc(F)c2)cc1` (stereo not drawn) [Compound 160] had an EC50 of 40 to 200 nM.

In the case of `Fc1ccc(C2NCCc3c2[nH]c2ccc(Br)cc32)c(F)c1` (stereo not drawn) [Compound 161], the EC50 (Homo sapiens) fell in the range of 40 to 200 nM.

`CC(C)c1ccc(C2NCCc3c2[nH]c2ccc(Cl)cc32)cc1` (stereo not drawn) [Compound 162] had an EC50 (Homo sapiens) of 40 to 200 nM.

With `Fc1ccc(C2NCCc3c2[nH]c2ccc(Cl)cc32)c(F)c1` (stereo not drawn) [Compound 163], the EC50 (Homo sapiens) fell in the range of 40 to 200 nM.

Molecule `COc1ccc(C2c3[nH]c4ccc(Cl)cc4c3CCN2C(=O)Nc2cccc(OC)c2)cc1` (stereo not drawn) [Compound 164] showed a concentration for a half-maximal effect (EC50) (Homo sapiens) of 40 to 200 nM.

For `CCOC(=O)N1CCc2c([nH]c3ccc(Cl)cc23)C1c1cccc(O)c1` (stereo not drawn) [Compound 165], the EC50 (Homo sapiens) lay within 40 to 200 nM.

Turning to `C[C@H](NC(=O)OC(C)(C)C)C(=O)N1CCc2c([nH]c3ccc(Cl)cc23)C1c1ccccc1` (stereo partly drawn) [Compound 166], the EC50 (Homo sapiens) lay in the range of 40 to 200 nM.

In turn, `COc1ccc(C2c3[nH]c4ccc(Cl)cc4c3CCN2C(=O)Nc2ccccc2)cc1` (stereo not drawn) [Compound 167] registered an EC50 (Homo sapiens) of 40 to 200 nM.

The molecule `Clc1ccc2[nH]c3c(c2c1)CCNC3c1cccc(Cl)c1Cl` (stereo not drawn) [Compound 168] returned an EC50 (Homo sapiens) of 40 to 200 nM.

`CCOC(=O)N1CCc2c([nH]c3ccc(Cl)cc23)C1c1ccccc1OC` (stereo not drawn) [Compound 169]: the EC50 (Homo sapiens) is 40 to 200 nM.

In turn, `Clc1ccc2[nH]c3c(c2c1)CCNC3c1ccc(Cl)c(Cl)c1` (stereo not drawn) [Compound 170] gave an EC50 (Homo sapiens) of 40 to 200 nM.

With `Clc1ccc2[nH]c3c(c2c1)CCNC3c1ccc(Br)cc1` (stereo not drawn) [Compound 171], the concentration for a half-maximal effect (EC50) (Homo sapiens) fell in the range of 200 to 1000 nM.

Consider `CCNC(=O)N1CCc2c([nH]c3ccc(Cl)cc23)C1c1ccc(OC)cc1` (stereo not drawn) [Compound 172], for which the EC50 (Homo sapiens) was 200 to 1000 nM.

In the case of `Fc1cc(F)cc(C2NCCc3c2[nH]c2ccc(Cl)cc32)c1` (stereo not drawn) [Compound 173], for the setting “Homo sapiens”, the EC50 lay within 200 to 1000 nM.

Turning to `Brc1ccc2[nH]c3c(c2c1)CCNC3c1ccccc1` (stereo not drawn) [Compound 174], the EC50 (Homo sapiens) was 200 to 1000 nM.

In turn, `CCOC(=O)Oc1cccc(C2c3[nH]c4ccc(Cl)cc4c3CCN2C(=O)OCC)c1` (stereo not drawn) [Compound 175] displayed an EC50 (Homo sapiens) of 200 to 1000 nM.

Molecule `Clc1ccc2[nH]c3c(c2c1)CCN(Cc1ccccc1)C3c1ccc2c(c1)OCO2` (stereo not drawn) [Compound 176] had an EC50 (Homo sapiens) of 200 to 1000 nM.

With `COc1ccc(C2c3[nH]c4ccc(Cl)cc4c3CCN2C(=O)NC(C)C)cc1` (stereo not drawn) [Compound 177], the EC50 (Homo sapiens) lay within 200 to 1000 nM.

On to `Fc1ccc(F)c(C2NCCc3c2[nH]c2ccc(Br)cc32)c1` (stereo not drawn) [Compound 178], for which, for the setting “Homo sapiens”, the EC50 lay within 200 to 1000 nM.

Turning to `COc1ccc(C2c3[nH]c4ccc(Cl)cc4c3CCN2C(=O)Nc2ccc(F)cc2)cc1` (stereo not drawn) [Compound 179], the EC50 (Homo sapiens) was in the range of 200 to 1000 nM.

`CCOC(=O)N1CCc2c([nH]c3ccc(Cl)cc23)C1c1ccc(-n2ccnc2)cc1` (stereo not drawn) [Compound 180] showed an EC50 (Homo sapiens) of 200 to 1000 nM.

As for `Clc1ccc(C2NCCc3c2[nH]c2ccc(Br)cc32)cc1` (stereo not drawn) [Compound 181], the EC50 (Homo sapiens) was 200 to 1000 nM.

Consider `COc1ccc(C2c3[nH]c4ccc(Cl)cc4c3CCN2C(=O)OC(C)Cl)cc1` (stereo not drawn) [Compound 182], for which the EC50 (Homo sapiens) was in the range of 200 to 1000 nM.

With `CCOC(=O)N1CCc2c([nH]c3ccc(Cl)cc23)C1c1ccccc1Cl` (stereo not drawn) [Compound 183], the 50% effective concentration (EC50) (Homo sapiens) is 200 to 1000 nM.

For the setting “Homo sapiens”, `CC(=O)N1CCc2c([nH]c3ccc(Cl)cc23)C1c1ccc(OCc2ccccc2)cc1` (stereo not drawn) [Compound 184] gave an EC50 of 200 to 1000 nM.

In the case of `O=[N+](O)c1ccc(C2NCCc3c2[nH]c2ccc(Cl)cc32)cc1` (stereo not drawn) [Compound 185], the EC50 lay in the range of 200 to 1000 nM.

On to `COc1ccc(NC(=O)N2CCc3c([nH]c4ccc(Cl)cc34)C2c2ccc(OC)cc2)cc1` (stereo not drawn) [Compound 186], for which the EC50 (Homo sapiens) fell in the range of 200 to 1000 nM.

Take `COCC(=O)N1CCc2c([nH]c3ccc(Br)cc23)C1c1ccc(C(C)C)cc1` (stereo not drawn) [Compound 187]: for the setting “Homo sapiens”, the EC50 was in the range of 200 to 1000 nM.

Regarding `COc1ccc(C2c3[nH]c4ccc(Cl)cc4c3CCN2C(=O)NCc2ccccc2)cc1` (stereo not drawn) [Compound 188], the EC50 (Homo sapiens) was 200 to 1000 nM.

Take `CCS(=O)(=O)N1CCc2c([nH]c3ccc(Cl)cc23)C1c1ccc(OC)cc1` (stereo not drawn) [Compound 189]: under “Homo sapiens”, the EC50 lay in the range of 200 to 1000 nM.

In turn, `Clc1ccc(C2NCCc3c2[nH]c2ccc(Cl)cc32)cc1` (stereo not drawn) [Compound 190] came in with an EC50 (Homo sapiens) of 200 to 1000 nM.

`CCOC(=O)N1CCc2c([nH]c3ccc(F)cc23)C1c1ccc(OC)cc1` (stereo not drawn) [Compound 191] yielded an EC50 (Homo sapiens) of 200 to 1000 nM.

In the case of `COc1ccc(C2c3[nH]c4ccc(Cl)cc4c3CCN2C(=O)O[C@H]2C[C@@H](C)CC[C@@H]2C(C)C)cc1` (stereo partly drawn) [Compound 192], for the setting “Homo sapiens”, the EC50 was 200 to 1000 nM.

Under “Homo sapiens”, `Cc1ccc(C2NCCc3c2[nH]c2ccc(Cl)cc32)cc1` (stereo not drawn) [Compound 193] registered an EC50 of 200 to 1000 nM.

On to `Fc1ccc(F)c(C2NCCc3c2[nH]c2ccc(Cl)cc32)c1` (stereo not drawn) [Compound 194], for which the EC50 (Homo sapiens) is 200 to 1000 nM.

Consider `CCOC(=O)N1CCc2c([nH]c3ccc(F)cc23)C1c1ccc(Br)cc1` (stereo not drawn) [Compound 196], for which the EC50 (Homo sapiens) lay in the range of 200 to 1000 nM.

For the molecule `Clc1ccc2[nH]c3c(c2c1)CCNC3c1ccccc1Cl` (stereo not drawn) [Compound 197], where the note is “Homo sapiens”, the half-maximal effective concentration (EC50) lay in the range of 200 to 1000 nM.

`Clc1cccc(C2NCCc3c2[nH]c2ccc(Cl)cc32)c1` (stereo not drawn) [Compound 198] registered an EC50 (Homo sapiens) of 200 to 1000 nM.

`CC(C)NC(=O)N1CCc2c([nH]c3ccc(Br)cc23)C1c1cccc(Cl)c1` (stereo not drawn) [Compound 199] returned an EC50 (Homo sapiens) of 200 to 1000 nM.

For the molecule `Clc1ccc2[nH]c3c(c2c1)CCNC3c1cccc(Br)c1` (stereo not drawn) [Compound 200], under “Homo sapiens”, the EC50 lay within 200 to 1000 nM.

The molecule `Fc1ccc(C2NCCc3c2[nH]c2ccc(Br)cc32)cc1F` (stereo not drawn) [Compound 201] had a half-maximal effective concentration (EC50) (Homo sapiens) of 200 to 1000 nM.

Molecule `CC(C)NC(=S)N1CCc2c([nH]c3ccc(Br)cc23)C1c1cccc(Cl)c1` (stereo not drawn) [Compound 202] displayed an EC50 (Homo sapiens) of 200 to 1000 nM.
